Assay results as given in patent US20230310356A1, “COMPOSITION FOR PREVENTING, AMELIORATING, OR TREATING BRAIN DAMAGE AND MILD COGNITIVE IMPAIRMENT COMPRISING GLUTAMINE AS EFFECTIVE COMPONENT” (INDUSTRY-ACADEMIC COOPERATION FOUNDATION GYEONGSANG …, priority 2020, published 2023).

Assays:
nNOS = assay: Double-IHC protein expression after CIS and glutamine supplementation: nNOS; type: in vivo, mouse; settings: microglial cells in infralimbic cortex and hippocampal CA1 region; glutamine supplementation diet vs stress group
Protocol: (§1) Control (CTL) is a group which received normal diet (common diet with nutritional balance) without any stress, CTL+Gln group is a normal diet group supplemented with glutamine (150 mg/kg of feed) and without any stress, STR is a normal diet group under stress, and STR+Gln group is a normal diet group supplemented with glutamine (150 mg/kg of feed) under stress. The stress group (STR) was individually brought by force to a restrainer for 2 hours every day (i.e., between 2 PM and 4 PM) so that the animals are applied with chronic immobilization stress for 15 days. To determine the specific changes in the brain tissues after glutamine supplementation, double staining was carried out with a cell marker so that the proteins related to a change in ROS/RNS content (i.e., iNOS; nNOS; and p47phox and p67phox as a subunit of NOX) with cell markers are analyzed by double-IHC (immunohistochemistry). Twenty-four hours after applying the last stress, the mouse was anesthetized with avertin, and perfused with PBS (pH 7.4) and 4% formaldehyde. After that, the brain was removed, fixed, and cut to a thickness with 40 μm. […]

p67phox = assay: Double-IHC protein expression after CIS and glutamine supplementation: p67phox; type: in vivo, mouse; settings: microglial cells in infralimbic cortex and hippocampal CA1 region; glutamine supplementation diet vs stress group
Protocol: as §1

PSD-95 and synaptophysin = assay: Synaptic puncta by co-localization of PSD-95 and synaptophysin after CIS and glutamine supplementation; type: in vivo, mouse; settings: infralimbic cortex and hippocampal CA1 region (FIGS. 5E and 6F)
Protocol: Control (CTL) is a group which received normal diet (common diet with nutritional balance) without any stress, CTL+Gln group is a normal diet group supplemented with glutamine (150 mg/kg of feed) and without any stress, STR is a normal diet group under stress, and STR+Gln group is a normal diet group supplemented with glutamine (150 mg/kg of feed) under stress. The stress group (STR) was individually brought by force to a restrainer for 2 hours every day (i.e., between 2 PM and 4 PM) so that the animals are applied with chronic immobilization stress for 15 days. Twenty-four hours after applying the last stress, the mouse was anesthetized with avertin, and perfused with PBS (pH 7.4) and 4% formaldehyde. After that, the brain was removed, fixed, and cut to a thickness with 40 μm. It was then incubated overnight after the addition of each antibody, nNOS (sc-5302, 200 μg/ml, Santa Cruz, Dallas, TX, USA, 1:50), iNOS (sc-7271, 200 μg/ml, Santa Cruz, 1:20), p47phox (sc-17845, 200 μg/ml, Santa Cruz, 1:20), p67phox (15551-1-AP, 43 μg/150 μl, Proteintech, Rosemont, IL, USA, 1:100), PSD-95 (postsynaptic density-95) (ab12093, 1 mg/ml, Abcam, Cambridge, UK, 1: 200), and synaptophysin (ab14692, 0.65 mg/ml, Abcam, 1: 200). […]

[1] = test system: C57BL/6 female mouse (NonTg); assay: ORT cognitive ability test in normal control mouse with glutamine diet; type: in vivo; settings: until the 6-months old stage, 150 mg glutamine/kg diet
Protocol: As an animal model for cognitive ability evaluation, a 7-weeks old 3×TG-AD female mouse (8 mice. model of Alzheimer's disease) and a C57BL/6 female mouse (10 mice, control) were selected. The animals of each type were divided into 2 groups, and each group was provided with regular animal feed (i.e., normal diet, ND) or glutamine feed (Gln). The glutamine diet group was allowed to consume the feed containing 150 mg glutamine/kg diet, from 2-months old stage to the end of test (i.e., 6 to 7-months old stage). Health state of the animal was checked by measuring, once a week, the bodyweight of the animal and food intake (FIG. 7A). Cognitive ability test of the mouse as an animal model established above was determined by ORT (object recognition test). The animal was habituated in a box for 2 days. On Day 3, it was allowed to explore two identical objects for 10 minutes. On Day 4, one of the two objects was replaced with a novel object, and then, the animal was allowed to explore further for 5 minutes (FIG. 7B). The time spent by animal for exploring after approaching within 1 cm from the periphery of both objects was measured. After carrying out the calculation using Formula (3) below, DI (discrimination index) was calculated and compared to each other. In the present invention, a different novel object was employed for carrying out each test. […]

In the case of `NC(=O)CC[C@H](N)C(=O)O` [glutamine], the “expression amount of nNOS” value (nNOS) is reported as “statistically significant decrement”, the “expression amount of p67phox” value (p67phox) is reported as “statistically significant decrement” and the “synaptic puncta (co-localization of PSD-95 and synaptophysin)” value (PSD-95 and synaptophysin) is reported as “significantly increased”. For the same compound, the “cognitive ability (ORT) change caused by glutamine diet” value [1] was “no change”.
